Test results as given in patent US9486422B2, “Small molecule inhibitors of Mcl-1 and the uses of thereof” (THE REGENTS OF THE UNIVERSITY OF MICHIGAN, priority 2011, dated 2016).
Like-named read-outs stand apart in the source and are kept apart here.

How the values were obtained:
[1] = target: Mcl-1 (Homo sapiens, UniProt Q07820); assay: FP-based binding assay, Mcl-1; conditions: for Ki: read-out: Mcl-1 Ki ± SD; for binding to Mcl-1, result in words: FP assay
[2] = target: T1, Bcl-w (Homo sapiens, UniProt Q92843); assay: FP-based binding assay, Bcl-w; conditions: for Ki: competitive FP, FAM-BID 2 nM, protein 40 nM, read-out: Bcl-w Ki ± SD
T1 sequence (Q92843 1-155): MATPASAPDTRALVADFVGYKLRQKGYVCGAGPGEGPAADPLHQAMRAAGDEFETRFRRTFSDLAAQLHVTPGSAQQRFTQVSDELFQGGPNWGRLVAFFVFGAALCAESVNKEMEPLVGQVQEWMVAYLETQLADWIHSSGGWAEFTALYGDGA

[3] = target: T2, A1/Bfl-1 (Homo sapiens, UniProt Q16548); assay: FP-based binding assay, A1/Bfl-1; conditions: for Ki: read-out: A1/Bfl-1 Ki ± SD
T2 sequence (Q16548 1-151): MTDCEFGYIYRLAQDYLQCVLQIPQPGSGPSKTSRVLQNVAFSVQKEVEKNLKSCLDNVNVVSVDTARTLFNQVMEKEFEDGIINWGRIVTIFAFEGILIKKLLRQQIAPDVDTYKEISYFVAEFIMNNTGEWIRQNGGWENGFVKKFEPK

[4] = target: Bcl-xL (Homo sapiens, UniProt Q07817, DEL45-85); assay: FP-based binding assay, Bcl-xL; conditions: read-out: Bcl-xL Ki ± SD
Chain of Bcl-xL (Q07817 other isoform, or with tags, fused parts or gaps DEL45-85): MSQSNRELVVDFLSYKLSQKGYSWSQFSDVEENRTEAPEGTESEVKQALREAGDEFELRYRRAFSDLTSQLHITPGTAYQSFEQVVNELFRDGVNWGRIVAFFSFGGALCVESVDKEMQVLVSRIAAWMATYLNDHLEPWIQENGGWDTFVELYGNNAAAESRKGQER

[5] = target: T3, Bcl-2 (Homo sapiens, UniProt P10415); assay: FP-based binding assay, Bcl-2; conditions: competitive FP, Flu-BID 2 nM, protein 60 nM; read-out: Bcl-2 Ki ± SD
T3 construct: His-tagged proteins containing; fused on or other part: A 16-residue segment of the flexible loop of Bcl-xL (BCL2L1, Q07817; given as residues 35 to 50) set into the Bcl-2 loop region; His tag with TEV site from the pHis-TEV vector
T3 sequence (P10415 with tags, fused parts or gaps with the stated changes): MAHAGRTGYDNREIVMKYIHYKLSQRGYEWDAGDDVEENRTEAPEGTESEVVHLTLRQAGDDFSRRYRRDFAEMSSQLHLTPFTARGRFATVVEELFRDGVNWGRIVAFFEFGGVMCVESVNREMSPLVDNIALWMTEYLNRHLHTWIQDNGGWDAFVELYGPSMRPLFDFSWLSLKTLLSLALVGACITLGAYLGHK

[6] = competitive FP, Flu-BID 2 nM, Mcl-1 90 nM, read-out: Mcl-1 IC50 ± SD
[7] = competitive FP, Ki calculated from IC50
[8] = competitive FP, FAM-BID 1 nM, protein 4 nM
[9] = competitive FP, FAM-BID 2 nM, protein 50 nM

Chain of Mcl-1 (Q07820 171-327): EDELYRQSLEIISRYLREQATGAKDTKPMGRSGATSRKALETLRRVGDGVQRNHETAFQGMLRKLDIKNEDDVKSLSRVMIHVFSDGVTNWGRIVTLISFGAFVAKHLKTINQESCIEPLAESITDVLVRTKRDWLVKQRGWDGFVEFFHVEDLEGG

SMILES	IC50 [1, 6] [µM]	Ki [1, 7] [µM]	also measured
O=C(O)CSc1cc(NS(=O)(=O)c2ccccc2)c2ccccc2c1O [Compound 2, 2-((1-Hydroxy-4-(phenylsulfonamido)naphthalen-2-yl)thio)acetic acid]	13 ± 1.62	–	Ki [1]: 3.56 ± 0.45 µM
Cc1ccc(S(=O)(=O)Nc2cc(SCC(=O)O)c(O)c3ccccc23)cc1 [Compound 3]	11.5 ± 0.78	3.13 ± 0.22	–
CCc1ccc(S(=O)(=O)Nc2cc(SCC(=O)O)c(O)c3ccccc23)cc1 [Compound 4]	5.73 ± 1.34	1.55 ± 0.37	–
COc1c(SCC(N)=O)cc(NS(=O)(=O)c2ccc(Br)cc2)c2ccccc12 [Compound 4v, 2-((4-(4-Bromophenylsulfonamido)-1-methoxynaphthalen-2-yl)thio)acetamide]	–	> 25	binding to Mcl-1, result in words [1]: loss of binding
CC(C)c1ccc(S(=O)(=O)Nc2cc(SCC(=O)O)c(O)c3ccccc23)cc1 [Compound 5]	–	1.06 ± 0.17	IC50 ([1]; read-out: Mcl-1 IC50 ± SD): 3.92 ± 0.63 µM
CC(C)(C)c1ccc(S(=O)(=O)Nc2cc(SCC(=O)O)c(O)c3ccccc23)cc1 [Compound 6]	3.03 ± 0.17	0.81 ± 0.04	–
O=C(O)CSc1cc(NS(=O)(=O)c2ccc(F)cc2)c2ccccc2c1O [Compound 7]	15.5 ± 3.38	4.23 ± 0.93	–
O=C(O)CSc1cc(NS(=O)(=O)c2ccc(Cl)cc2)c2ccccc2c1O [Compound 8, 2-((4-(4-Chlorophenylsulfonamido)-1-hydroxynaphthalen-2-yl)thio)acetic acid]	3.08 ± 0.35	–	Ki [1]: 0.82 ± 0.1 µM
O=C(O)CSc1cc(NS(=O)(=O)c2cccc(Br)c2)c2ccccc2c1O [Compound 10, 2-((4-(3-Bromophenylsulfonamido)-1-hydroxynaphthalen-2-yl)thio)acetic acid]	8.64 ± 0.69	2.35 ± 0.19	–
O=C(O)CSc1cc(NS(=O)(=O)c2ccccc2Br)c2ccccc2c1O [Compound 11, 2-((4-(2-Bromophenylsulfonamido)-1-hydroxynaphthalen-2-yl)thio)acetic acid]	16.2 ± 3.12	–	Ki [1]: 4.42 ± 0.86 µM
O=C(O)CSc1cc(NS(=O)(=O)c2cc3ccccc3s2)c2ccccc2c1O [Compound 12, 2-((4-(Benzo[b]thiophene-2-sulfonamido)-1-hydroxynaphthalen-2-yl)thio)acetic acid]	–	1.54 ± 0.32	IC50 [1]: 5.66 ± 1.15 µM
O=C(O)CSc1cc(NS(=O)(=O)c2ccc3ccccc3c2)c2ccccc2c1O [Compound 13]	2.74 ± 0.18	0.73 ± 0.05	–
O=C(O)CSc1cc(NS(=O)(=O)c2ccc(-c3ccccc3)cc2)c2ccccc2c1O [Compound 14, 2-((4-([1,1′-Biphenyl]-4-ylsulfonamido)-1-hydroxynaphthalen-2-yl)thio)acetic acid]	1.4 ± 0.36	–	Ki [2]: 1.92 ± 0.37 µM; Ki [3]: 2.34 ± 0.37 µM; fold improved binding to Mcl-1 compared to 2 [1]: 9 fold; Ki [1]: 0.37 ± 0.1 µM; Ki [4]: 8.05 ± 0.5 µM
O=C(O)CSc1cc(NS(=O)(=O)c2cccc(-c3ccccc3)c2)c2ccccc2c1O [Compound 15, 2-((4-([1,1′-Biphenyl]-3-ylsulfonamido)-1-hydroxynaphthalen-2-yl)thio)acetic acid]	1.41 ± 0.17	–	Ki [2]: 2.19 ± 0.45 µM; Ki [3]: 3.18 ± 0.41 µM; fold improved binding to Mcl-1 compared to 2 [1]: 9 fold; Ki [1]: 0.38 ± 0.03 µM; Ki [4]: 15.1 ± 1.11 µM
O=C(O)CSc1cc(NS(=O)(=O)c2ccccc2-c2ccccc2)c2ccccc2c1O [Compound 16, 2-((4-([1,1′-Biphenyl]-2-ylsulfonamido)-1-hydroxynaphthalen-2-yl)thio)acetic acid]	7.47 ± 1.47	–	Ki [2]: 4.41 ± 0.39 µM; Ki [3]: 17.3 ± 0.56 µM; fold improved binding to Mcl-1 compared to 2 [1]: 2 fold; Ki [1]: 2.03 ± 0.41 µM; Ki [4]: 48.1 ± 3.28 µM
O=C(O)CSc1cc(NS(=O)(=O)c2ccc(-c3ccc(Cl)cc3)cc2)c2ccccc2c1O [Compound 17, 2-((4-(4′-Chloro-[1,1′-biphenyl]-4-ylsulfonamido)-1-hydroxynaphthalen-2-yl)thio)acetic acid]	0.68 ± 0.14	0.17 ± 0.04	–
O=C(O)CSc1cc(NS(=O)(=O)c2ccc(Oc3ccccc3)cc2)c2ccccc2c1O [Compound 18, 2-((1-Hydroxy-4-(4-phenoxyphenylsulfonamido)naphthalen-2-yl)thio)acetic acid]	–	–	Ki [2]: 1.58 ± 0.35 µM; Ki [3, 8]: 3.36 ± 0.56 µM; Ki [4, 9]: 10.6 ± 1.53 µM

SMILES	IC50 [1, 6] [µM]	Ki [1, 7] [µM]	also measured
CCOc1ccc(S(=O)(=O)Nc2cc(SCC(=O)O)c(O)c3ccccc23)cc1 [Compound 19]	50.1 ± 4.15	13.7 ± 1.14	–
O=C(O)CSc1cc(NS(=O)(=O)c2ccc(C(=O)O)cc2)c2ccccc2c1O [Compound 20]	17.4	4.76	–
CS(=O)(=O)Nc1cc(SCC(=O)O)c(O)c2ccccc12 [Compound 21, 2-((1-Hydroxy-4-(methylsulfonamido)naphthalen-2-yl)thio)acetic acid]	> 200	> 50	–
O=C(O)CSc1cc(NS(=O)(=O)c2ccc(Br)cc2)ccc1O [Compound 22, 2-((5-(4-Bromophenylsulfonamido)-2-hydroxyphenyl)thio)acetic acid]	> 800	> 200	Ki [2]: > 90 µM; Ki [3, 8]: > 140 µM; Ki [5]: > 200 µM; Ki [4, 9]: > 130 µM
O=C(O)CSc1cc(NC(=O)c2ccc(Br)cc2)c2ccccc2c1O [Compound 23, 2-((4-(4-Bromobenzamido)-1-hydroxynaphthalen-2-yl)thio)acetic acid]	> 100	> 25	–
O=C(O)CSc1cc(NC(=O)Cc2ccccc2)c2ccccc2c1O [Compound 24, 2-((1-Hydroxy-4-(2-phenylacetamido)naphthalen-2-yl)thio)acetic acid]	154 ± 40.2	42.4 ± 11	–
O=C(O)CSc1cc(NS(=O)(=O)Cc2ccc(Cl)cc2)c2ccccc2c1O [Compound 25, 2-((4-((4-Chlorophenyl)methylsulfonamido)-1-hydroxynaphthalen-2-yl)thio)acetic acid]	19.1 ± 1.31	5.23 ± 0.36	–
O=S(=O)(Nc1ccc(O)c2ccccc12)c1ccccc1 [Compound 27, N-(4-Hydroxynaphthalen-1-yl)benzenesulfonamide]	> 100	> 25	binding to Mcl-1, result in words [1]: abolished binding
CCCCSc1cc(NS(=O)(=O)c2ccc(Br)cc2)c2ccccc2c1O [Compound 30, 4-Bromo-N-(3-(butylthio)-4-hydroxynaphthalen-1-yl)benzenesulfonamide]	> 100	> 25	binding to Mcl-1, result in words [1]: abolished the binding to Mcl-1 protein
O=S(=O)(Nc1cc(CCCCO)c(O)c2ccccc12)c1ccc(Br)cc1 [Compound 32, 4-Bromo-N-(4-hydroxy-3-(4-hydroxybutyl)naphthalen-1-yl)benzenesulfonamide]	8.01 ± 3.31	–	fold decreased binding to Mcl-1 compared to 9 (UMI-77) [1]: 4 fold; Ki [1]: 2.18 ± 0.91 µM
NC(=O)CSc1cc(NS(=O)(=O)c2ccc(Br)cc2)c2ccccc2c1O [Compound 33, 2-((4-(4-Bromophenylsulfonamido)-1-hydroxynaphthalen-2-yl)thio)acetamide]	6.27 ± 1.28	–	Ki [1]: 1.71 ± 0.35 µM
O=C(O)CCSc1cc(NS(=O)(=O)c2ccc3ccccc3c2)c2ccccc2c1O [Compound 34, 3-((1-Hydroxy-4-(naphthalene-2-sulfonamido)naphthalen-2-yl)thio)propanoic acid]	4.2 ± 1.25	1.13 ± 0.34	–
O=C(O)CCSc1cc(NS(=O)(=O)c2cccc3ccccc23)c2ccccc2c1O [Compound 35]	> 50	> 12.5	–
COC(=O)CSc1cc(NS(=O)(=O)c2ccc(Br)cc2)c2ccccc2c1OC [Compound 40d, Methyl 2-((4-(4-bromophenylsulfonamido)-1-methoxynaphthalen-2-yl)thio)acetate]	> 800	> 200	–
CCCCSc1cc(NS(=O)(=O)c2ccc(Br)cc2)c2ccccc2c1OC [Compound 40p, 4-Bromo-N-(3-(butylthio)-4-methoxynaphthalen-1-yl)benzenesulfonamide]	> 800	> 200	–
CC[C@H](C)[C@H](NC(=O)[C@H](CC(N)=O)NC(=O)[C@H](CCCNC(=N)N)NC(=O)[C@@H](NC(=O)[C@@H](NC(=O)[C@H](CC(=O)O)NC(=O)[C@H](CCC(=O)O)NC(=O)c1ccc2c(c1)C(=O)OC21c2ccc(O)cc2Oc2cc(O)ccc21)[C@@H](C)CC)[C@@H](C)CC)C(=O)N[C@@H](C)C(=O)N[C@@H](CCCNC(=N)N)C(=O)N[C@@H](Cc1c[nH]cn1)C(=O)N[C@@H](CC(C)C)C(=O)N[C@@H](C)C(=O)N[C@@H](CCC(N)=O)C(=O)N[C@H](C(=O)NCC(=O)N[C@@H](CC(=O)O)C(=O)N[C@@H](CO)C(=O)N[C@@H](CCSC)C(=O)N[C@@H](CC(=O)O)C(=O)N[C@@H](CCCNC(=N)N)C(=O)O)C(C)C [FAM-BID, reference compound]	–	–	Kd ([2]; saturation experiments, tracer 2 nM, read-out: Kd of fluorescent probe to Bcl-w): 0.0055 ± 0.0016 µM; Kd ([3]; saturation experiments, tracer 2 nM, read-out: Kd of fluorescent probe to A1/Bfl-1): 0.00083 ± 6e-05 µM
